Here are results for 61 molecules from patent US20260001892A1, “COMPOUND FOR REGULATING AND CONTROLLING ACTIVITY OF 15-PGDH AND PREPARATION METHOD THEREFOR” (SCINNOHUB PHARMACEUTICAL CO., LTD., priority 2022, published 2026).

Chain of 15-PGDH (P15428 whole entry): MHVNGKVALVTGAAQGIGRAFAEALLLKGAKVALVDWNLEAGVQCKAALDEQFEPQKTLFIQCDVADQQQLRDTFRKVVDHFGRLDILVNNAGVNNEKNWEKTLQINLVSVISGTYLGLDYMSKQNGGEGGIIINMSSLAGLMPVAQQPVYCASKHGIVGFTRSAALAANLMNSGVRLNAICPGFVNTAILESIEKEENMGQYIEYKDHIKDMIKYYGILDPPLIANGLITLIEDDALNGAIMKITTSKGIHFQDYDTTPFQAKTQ

The assay has as its target 15-PGDH (Homo sapiens (Human), UniProt P15428). Description: Detection of activity of 15-PGDH enzyme. To be noted: inhibitory activity against 15-PGDH enzyme; substrates β-NAD and PGF2α; fluorescence Ex/Em=340/450. The class given is biochemical. As to the method: • a. A solution of pH 7.5 containing 50 mM Tris-HCl, 0.01% Tween 20 was prepared with ultrapure water as a reaction buffer; • b. A 10 mM mother liquor of the compound to be tested was prepared with DMSO, and then the reaction buffer was used to dilute the mother liquor of the compound to be tested to obtain solution 1 of the compound to be tested at a concentration of 40,000 nM, and then the solution 1 of the compound to be tested was serially diluted into solutions 2-9 (or 2-12) of the compound to be tested at 9 (or 11) concentrations with a gradient difference of three-fold. 5 μL of each concentration of solutions of the compound to be tested was respectively taken and added into a 384-well plate as test wells; • c. 5 μL of the reaction buffer was then added to the blank wells of the 384-well plate as positive control and blank control wells, respectively; • d. The reaction buffer was used to prepare a 15-PGDH protein solution at a concentration of 5 ng/μL, 5 μL of the 15-PGDH protein solution was taken and added to the test wells and positive control wells, and meanwhile 5 μL of the reaction buffer was added to the blank control wells, then the plate was centrifuged at 2000 rpm for 30 seconds; • e. The reaction buffer was used to prepare 5 mM $3-NAD and 2 mM PGF2α, respectively, which were mixed at 1:1 by volume to obtain a substrate mixture, 10 μL of the substrate mixture was taken and added to the test wells, positive control wells and blank control wells to start the reaction; • f. The fluorescence signal value (Ex/Em=340/450) of each well was detected continuously by using a multifunctional microplate reader.
• a) Continuous fluorescence signal values were analyzed by using the “kinetic calculations-slope calculation method” in the PHERAstar Data analysis software to obtain the slope of each test well; • b) The inhibition rate % was calculated by using the following formula: inhibition rate %=[1−(slope of test well-signal value of positive control well)/(signal value of blank control well-average signal value of positive control well)]×100%. • c) Calculation of IC50 and plotting of inhibition rate-dose curves: IC50 values were calculated by fitting compound concentrations and corresponding inhibition rates with a nonlinear regression (dose response-variable slope) via using GraphPad Prism 6.0. The formula was shown below:
Y=Bottom+(Top−Bottom)/(1+10^((Log IC50−X)*HillSlope)), wherein X is a log value of a concentration of the compound, and Y is inhibition rate %.
A word on the IC50: it is the concentration that inhibits the measured activity by half. A low value points to inhibition by little substance. In the case of `O=C(c1sc2nc(-c3ccccc3)cnc2c1C1CC1)N1CCCCC1` [Example 1, (7-cyclopropyl-3-phenylthieno[2,3-b]pyrazin-6-yl)(piperidin-1-yl)methanone], the IC50 was below 0.003 µM. With `Cc1cc(-c2cnc3c(C4CC4)c(C(=O)N4CCCCC4)sc3n2)ccn1` [Example 2, (7-cyclopropyl-3-(2-methylpyridin-4-yl)thieno[2,3-b]pyrazin-6-yl)(piperidin-1-yl)methanone] the figure was 0.003 to 0.01 µM; with `O=C(c1sc2nc(-c3cnc(N4CCOCC4)nc3)cnc2c1C1CC1)N1CCCCC1` [Example 3], below 0.003 µM; with `O=C(c1sc2nc(-c3ccnc(F)c3)cnc2c1C1CC1)N1CCCCC1` [Example 4], 0.003 to 0.01 µM. Molecule `COc1ncc(-c2cnc3c(C4CC4)c(C(=O)N4CCCCC4)sc3n2)cn1` [Example 5] displayed an IC50 below 0.003 µM.

As for `O=C(c1sc2nc(-c3cccnc3)cnc2c1C1CC1)N1CCCCC1` [Example 7], the IC50 lay in the range of 0.003 to 0.01 µM. Consider `Cc1noc(C)c1-c1cnc2c(C3CC3)c(C(=O)N3CCCCC3)sc2n1` [Example 8], for which the half-maximal inhibitory concentration (IC50) was 0.003 to 0.01 µM. Molecule `O=C(c1sc2nc(-c3ccncc3)cnc2c1C1CC1)N1CCCCC1` [Example 9] gave an IC50 of 0.003 to 0.01 µM. Molecule `Cn1cc(-c2cnc3c(C4CC4)c(C(=O)N4CCCCC4)sc3n2)cn1` [Example 10] had an IC50 of 0.003 to 0.01 µM. Turning to `N#Cc1ccc(-c2cnc3c(C4CC4)c(C(=O)N4CCCCC4)sc3n2)cn1` [Example 11], the IC50 was 0.01 to 0.02 µM. For the molecule `O=C(c1sc2nc(-c3ccc4nccn4c3)cnc2c1C1CC1)N1CCCCC1` [Example 12], the IC50 was below 0.003 µM. `O=C(c1sc2nc(-c3ccc4ncsc4c3)cnc2c1C1CC1)N1CCCCC1` [Example 13] had an IC50 of 0.003 to 0.01 µM. `O=C(c1sc2nc(-c3ccc4c(c3)OCO4)cnc2c1C1CC1)N1CCCCC1` [Example 14] gave a half-maximal inhibitory concentration (IC50) of 0.003 to 0.01 µM.

`O=C(c1sc2nc(-c3c[nH]c4ccccc34)cnc2c1C1CC1)N1CCCCC1` [Example 16] had an IC50 of 0.01 to 0.02 µM. The same measure for `O=C(c1sc2nc(-c3cccs3)cnc2c1C1CC1)N1CCCCC1` [Example 17]: 0.003 to 0.01 µM; for `Cn1cc(-c2cnc3c(C4CC4)c(C(=O)N4CCCCC4)sc3n2)ccc1=O` [Example 18]: below 0.003 µM; for `O=C(c1sc2nc(-c3ccc(N4CCOCC4)nc3)cnc2c1C1CC1)N1CCCCC1` [Example 19]: 0.003 to 0.01 µM. `O=C(c1sc2nc(-c3ccc4nccnc4c3)cnc2c1C1CC1)N1CCCCC1` [Example 20]: the IC50 lay in the range of 0.003 to 0.01 µM. `O=C(c1sc2nc(-c3ccc4c(c3)OCCO4)cnc2c1C1CC1)N1CCCCC1` [Example 21] came in with an IC50 of 0.003 to 0.01 µM. `O=C(c1sc2nc(-c3cncnc3)cnc2c1C1CC1)N1CCCCC1` [Example 22] displayed an IC50 below 0.003 µM. `COc1ccc(-c2cnc3c(C4CC4)c(C(=O)N4CCCCC4)sc3n2)cn1` [Example 23] returned an IC50 of 0.01 to 0.02 µM. Regarding `Cc1ccc(-c2cnc3c(C4CC4)c(C(=O)N4CCCCC4)sc3n2)cn1` [Example 24], the IC50 was below 0.003 µM. Molecule `O=C(c1sc2nc(-c3ccnc(C(F)(F)F)c3)cnc2c1C1CC1)N1CCCCC1` [Example 25] had an IC50 of 0.01 to 0.02 µM. Molecule `COc1cc(-c2cnc3c(C4CC4)c(C(=O)N4CCCCC4)sc3n2)ccn1` [Example 26] came in with an IC50 below 0.003 µM. The molecule `O=C(c1sc2nc(-c3ccc(F)nc3)cnc2c1C1CC1)N1CCCCC1` [Example 27] came in with an IC50 of 0.003 to 0.01 µM. The same measure for `Nc1cc(-c2cnc3c(C4CC4)c(C(=O)N4CCCCC4)sc3n2)ccn1` [Example 28]: 0.003 to 0.01 µM. In the case of `O=C(c1sc2nc(-c3cncs3)cnc2c1C1CC1)N1CCCCC1` [Example 29], the half-inhibitory concentration (IC50) was in the range of 0.003 to 0.01 µM. Regarding `CN(C)c1ncc(-c2cnc3c(C4CC4)c(C(=O)N4CCCCC4)sc3n2)cn1` [Example 30], the IC50 lay in the range of 0.003 to 0.01 µM. In the case of `Nc1ncc(-c2cnc3c(C4CC4)c(C(=O)N4CCCCC4)sc3n2)cn1` [Example 31], the IC50 is below 0.003 µM. As to `CN1Cc2cc(-c3cnc4c(C5CC5)c(C(=O)N5CCCCC5)sc4n3)ccc2C1=O` [Example 32], the IC50 was below 0.003 µM. As to `N#Cc1c(C(=O)N2CCCCC2)sc2nc(-c3ccccc3)cnc12` [Example 33, 3-phenyl-6-(piperidine-1-carbonyl)thieno[2,3-b]pyrazine-7-carbonitrile], the IC50 lay within 0.01 to 0.02 µM. The molecule `COc1ncc(-c2cnc3c(C#N)c(C(=O)N4CCCCC4)sc3n2)cn1` [Example 34, 3-(2-methoxypyrimidin-5-yl)-6-(piperidine-1-carbonyl)thieno[2,3-b]pyrazine-7-carbonitrile] registered an IC50 of 0.01 to 0.02 µM. Turning to `N#Cc1c(C(=O)N2CCCCC2)sc2nc(-c3ccc(N4CCOCC4)nc3)cnc12` [Example 43], the IC50 lay in the range of 0.01 to 0.02 µM. For `N#Cc1c(C(=O)N2CCCCC2)sc2nc(-c3ccc4nccnc4c3)cnc12` [Example 45], the 50% inhibitory concentration (IC50) was 0.003 to 0.01 µM. In turn, `N#Cc1c(C(=O)N2CCCCC2)sc2nc(-c3ccc4nccn4c3)cnc12` [Example 47] yielded an IC50 of 0.003 to 0.01 µM. In turn, `N#Cc1c(C(=O)N2CCCCC2)sc2nc(-c3ccc4ncsc4c3)cnc12` [Example 48] came in with an IC50 of 0.003 to 0.01 µM.

`COc1ccc(-c2cnc3c(C#N)c(C(=O)N4CCCCC4)sc3n2)cn1` [Example 50] registered a concentration for half-maximal inhibition (IC50) of 0.01 to 0.02 µM. `Cc1ccc(-c2cnc3c(C#N)c(C(=O)N4CCCCC4)sc3n2)cn1` [Example 51] registered an IC50 of 0.01 to 0.02 µM. `COc1cc(-c2cnc3c(C#N)c(C(=O)N4CCCCC4)sc3n2)ccn1` [Example 55] had an IC50 of 0.01 to 0.02 µM.

On to `N#Cc1c(C(=O)N2CCCCC2)sc2nc(-c3cncs3)cnc12` [Example 56], for which the IC50 lay within 0.003 to 0.01 µM. As to `Cc1cc(-c2cnc3c(C#N)c(C(=O)N4CCCCC4)sc3n2)ccn1` [Example 57], the IC50 lay in the range of 0.003 to 0.01 µM.

`CN(C)c1ncc(-c2cnc3c(C#N)c(C(=O)N4CCCCC4)sc3n2)cn1` [Example 58] yielded an IC50 of 0.003 to 0.01 µM. For `N#Cc1c(C(=O)N2CCCCC2)sc2nc(-c3cnc(N4CCOCC4)nc3)cnc12` [Example 59], the IC50 lay in the range of 0.003 to 0.01 µM. In turn, `N#Cc1c(C(=O)N2CCCCC2)sc2nc(-c3cnc(N)nc3)cnc12` [Example 60] registered an IC50 of 0.003 to 0.01 µM. As for `N#Cc1c(C(=O)N2CCCCC2)sc2nc(-c3cncnc3)cnc12` [Example 61], the IC50 is 0.003 to 0.01 µM. As to `CN1Cc2cc(-c3cnc4c(C#N)c(C(=O)N5CCCCC5)sc4n3)ccc2C1=O` [Example 62], the IC50 fell in the range of 0.003 to 0.01 µM. `O=C(c1sc2nc(-c3ccccc3)cnc2c1C(F)(F)F)N1CCCCC1` [Example 63, (3-phenyl-7-(trifluoromethyl)thieno[2,3-b]pyrazin-6-yl)(piperidin-1-yl)methanone] displayed an IC50 of 0.003 to 0.01 µM. With `COc1ncc(-c2cnc3c(C(F)(F)F)c(C(=O)N4CCCCC4)sc3n2)cn1` [Example 64, (3-(2-methoxypyrimidin-5-yl)-7-(trifluoromethyl)thieno[2,3-b]pyrazin-6-yl)(piperidin-1-yl)methanone], the IC50 was in the range of 0.003 to 0.01 µM. `O=C(c1sc2nc(-c3ccnc(F)c3)cnc2c1C(F)(F)F)N1CCCCC1` [Example 65] yielded an IC50 of 0.003 to 0.01 µM. For `N#Cc1ccc(-c2cnc3c(C(F)(F)F)c(C(=O)N4CCCCC4)sc3n2)cn1` [Example 67], the half-inhibitory concentration (IC50) was 0.01 to 0.02 µM. `Cn1cc(-c2cnc3c(C(F)(F)F)c(C(=O)N4CCCCC4)sc3n2)cn1` [Example 68]: the IC50 was 0.003 to 0.01 µM. The same measure for `O=C(c1sc2nc(-c3cccs3)cnc2c1C(F)(F)F)N1CCCCC1` [Example 69]: below 0.003 µM. `Cc1noc(C)c1-c1cnc2c(C(F)(F)F)c(C(=O)N3CCCCC3)sc2n1` [Example 70] came in with an IC50 of 0.01 to 0.02 µM. The molecule `Cn1cc(-c2cnc3c(C(F)(F)F)c(C(=O)N4CCCCC4)sc3n2)ccc1=O` [Example 71] registered a half-maximal inhibitory concentration (IC50) of 0.003 to 0.01 µM.

In turn, `O=C(c1sc2nc(-c3ccncc3)cnc2c1C(F)(F)F)N1CCCCC1` [Example 72] had an IC50 of 0.003 to 0.01 µM.

`O=C(c1sc2nc(-c3cccnc3)cnc2c1C(F)(F)F)N1CCCCC1` [Example 74] registered an IC50 below 0.003 µM. `O=C(c1sc2nc(-c3ccc4c(c3)OCCO4)cnc2c1C(F)(F)F)N1CCCCC1` [Example 76] returned an IC50 of 0.01 to 0.02 µM. Molecule `O=C(c1sc2nc(-c3ccc4nccn4c3)cnc2c1C(F)(F)F)N1CCCCC1` [Example 77] returned an IC50 of 0.003 to 0.01 µM. `O=C(c1sc2nc(-c3ccc4ncsc4c3)cnc2c1C(F)(F)F)N1CCCCC1` [Example 78] gave an IC50 of 0.01 to 0.02 µM. `O=C(c1sc2nc(-c3ccc(F)nc3)cnc2c1C(F)(F)F)N1CCCCC1` [Example 79]: the IC50 lay in the range of 0.003 to 0.01 µM. `COc1ccc(-c2cnc3c(C(F)(F)F)c(C(=O)N4CCCCC4)sc3n2)cn1` [Example 80] came in with an IC50 of 0.003 to 0.01 µM.
